Measured values as given in US12152240B2, “Permanent epigenetic gene silencing” (Ospedale San Raffaele S.R.L., priority 2014, dated 2024).

How the values were obtained:
Assay type in all cases: cell-based, human
[1] = test system: eGFP-negative (silenced) AAVS1/TetO7 cells; assay: 5-Aza treatment of eGFP-silenced AAVS1/TetO7 cells (flow cytometry); conditions: 7 days
Protocol: In order to understand if DNA methylation was necessary to maintain the repressive state induced by tetR:D3A, the eGFP-cells from the doxy-conditions in FIG. 2D were treated with either 5-Aza-2′-deoxycytidine (5-Aza) or vehicle (i.e. Dimethyl Sulfoxide, DMSO) and then analysed by flow cytometry to measure eGFP expression. 5-Aza is a cytosine analogue that after becoming incorporated into DNA is recognised by DNA methyltransferase as a substrate, establishing a covalent bond that, contrary to cytosine, is not resolved, thus blocking DNMT activity (Issa, J. P. et al. (2005) Nat. Rev. Drug Discov. Suppl. S6-7).
To test activity of the ATRs, the reporter cell lines were transduced with the ATR-expressing Bid.LV at a MOI of 10, or transfected with plasmids or in vitro transcribed mRNAs expressing the ATRs (4D-Nucleofector™ System; Lonza) according to the manufacturer's instruction for K-562, U937 and NIH/3T3, or using the pulse program EW-113 and the SF solution for B-lymphoblastoid cells. […] The AZA-containing media was replaced every day, and the cells were analysed by flow cytometry at day 4 and 7 after treatment. […] The IFN-γ-containing media was replaced every day, and the cells were analysed by flow cytometry at day 2 and 4 after treatment. […] Two weeks after plating, colonies were counted and identified according to morphological criteria and analysed by flow cytometry.

[2] = test system: B2M gene promoter region, HEK-293T cells; assay: B2M silencing in HEK-293T cells (flow cytometry); conditions: day 7 upon AZA treatment
From the text: In order to assess if the results obtained with the eGFP reporter system could also be translated to an endogenous gene embedded in its natural epigenetic context, we generated custom-made TALEs targeting the promoter region of the B2-Microglobulin (B2M) gene (the amino acid sequences of these TALEs and the nucleotide sequences of their corresponding binding sites are listed in Table 3), and fused these TALEs to the KRAB, DNMT3A and DNMT3L effector domains (for a schematic of the system refer to FIG. 13A). The spacer length between the first and the second, or between the second and the third TALE is 1 or 20 bp, respectively. We then co-transfected HEK-293T cells with the plasmids encoding for these novel ATRs and analysed the cells by flow cytometry for B2M expression.
Remarkably, up to 80% of the cells treated with all the ATRs permanently lost B2M surface expression. In parallel experiments, we sorted the B2M-negative and the B2M-positive cells, and analysed them for surface expression of MHC-I molecules, which require B2M to be presented on the plasma membrane. […] Then we assessed if the three effector domains were capable of inducing permanent epigenetic silencing also when targeted to the B2M gene via the RNA-guided CRISPR/Cas9 system. […]
We then assessed if these findings also held true with ATRs based on custom-made DNA binding domains. […]

B2M gene, HEK-293T cells = assay: B2M, OAS1 and B2M locus gene expression in HEK-293T cells (RT-qPCR)
From the text: Remarkably, up to 80% of the cells treated with all the ATRs permanently lost B2M surface expression. In parallel experiments, we sorted the B2M-negative and the B2M-positive cells, and analysed them for surface expression of MHC-I molecules, which require B2M to be presented on the plasma membrane. […] Then we assessed if the three effector domains were capable of inducing permanent epigenetic silencing also when targeted to the B2M gene via the RNA-guided CRISPR/Cas9 system. To this aim, we fused in frame to a catalytically dead Cas9 (D10A+H840A; dCas9; amino acid sequence listed in Table 4) the KRAB, the DNMT3A or the DNMT3L effector domains (FIG. 13E; top drawings), and designed 11 guide RNAs (gRNAs; nucleotide sequences listed in Table 4) targeting the promoter region of the B2M gene (FIG. 13E; bottom schematic, arrows indicate the location of the CRISPR/dCas9 target sites). […] We then assessed if B2M silencing was resistant to IFN-γ treatment, a potent inducer of B2M expression (Vraetz, T. et al. (1999) Nephrol. Dial. Transplant. 14:2137-43; Gobin, S. J. et al. (2003) Blood 101:3058-64). […]
In order to assess if silencing induced by our ATRs was associated with the deposition of repressive epigenetic marks on the targeted gene, we analysed the epigenetic state of the B2M gene in wild-type and silenced cells. […]

Row | Compound | eGFP expression after 5-Aza treatment ([1]; eGFP- cells silenced with tetR:D3A, 1 μM) | eGFP expression after 5-Aza treatment ([1]; eGFP-negative sorted cells from tetR:K/tetR:D3A conditions) | B2M expression after AZA treatment of previously silenced cells [2] | B2M expression upon IFN-γ treatment (transcriptional and protein level) (B2M gene, HEK-293T cells; 500 U/mL IFN-γ, wild-type or sorted B2M-negative cells) | upregulation of OAS1 gene expression (B2M gene, HEK-293T cells; IFN-γ treatment, all cell types tested (wild-type and B2M-negative)) [fold]
1 | Nc1ncn([C@H]2C[C@H](O)[C@@H](CO)O2)c(=O)n1 [5-Aza, 5-Aza-2′-deoxycytidine] | full reactivation of eGFP expression | completely reactivated eGFP expression | re-expression of the B2M gene |  | 
2 | IFN-γ: a potent inducer of B2M expression |  |  |  | significantly upregulated B2M expression | > 100
